Results as given in US7745450B2, “Pyrazolo[4,3-d]pyrimidines, processes for their preparation and methods for therapy” (Institute of Experimental Botany, priority 2002, dated 2010).
Read-outs that look alike come from different tables or passages of the source. Values belong to the molecule of their own block, whether it stands above or below them.

Assays:
DNA synthesis = experiment: Inhibition of DNA synthesis in Xenopus egg extracts; assay type: biochemical; settings: [α-32P]dATP incorporation after 3 h
Experimental: Metaphase-arrested Xenopus egg extracts were prepared as described previously by Blow “J. Cell Biol.” 1993; 122:993 and stored in liquid nitrogen. Demembranated Xenopus sperm nuclei were prepared as described. by Blow & Laskey “Cell” 1986; 47:577. After thawing, extracts were supplemented with 25 mM phosphocreatine, 5 μg/ml creatine phosphokinase, 250 μg/ml cycloheximide, [α-^32P]dATP (for DNA synthesis assays). Demembranated sperm nuclei were added to a final sperm concentration of 3 ng/μl DNA extract and CDK inhibitor tested was then added at different concentrations. […] DNA synthesis was assessed by releasing extract into interphase by the addition of 0.3 mM CaCl2 and measuring the total amount of [α-^32P]dATP incorporation after 3 h by TCA co-precipitation.

MMK1 protein kinase = MMK1 protein kinase (Vicia faba, UniProt A0AAV1B7B8); experiment: MMK1 protein kinase activity; assay type: biochemical
In short: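 Plant CDK was purified from extracts on p13^suc1-beads or by anti-cdc2a-MS immunopurification, and MMK1 was immunopurified from Vicia faba extracts. Kinase activity was read as radioactivity incorporated into histone H1 or myelin basic protein, quantified by phosphoimager.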

[1] = tested on: CEM (human lymphoblastoid leukemia); experiment: In vitro cytotoxic activity, Calcein AM; assay type: cell-based; settings: three days
In short: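 CEM cells were seeded at 10^4/well in DMEM + 10% FBS and exposed to six concentrations from 200 to 0.2 μM, in triplicate, for 3 days at 37 °C and 5% CO2. Viable cells were then measured by Calcein AM fluorescence after 1 h loading.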

normal human lymphocytes = experiment: Immunosuppressive activity, 3H-thymidine incorporation in concanavalin A activated lymphocytes; assay type: cell-based; settings: Lymphocyte, 72 hours, [3H]-TdR, read-out: Human lymphocytes ED50
Experimental: Human heparinized peripheral blood was obtained from healthy volunteers by cubital vein punction. The blood was diluted in PBS (1:3) and mononuclear cells were separated by centrifugation in Ficoll-Hypaque density gradient (Pharmacia, 1.077 g/ml) at 2200 rpm for 30 minutes. Following centrifugation, lymphocytes were washed in PBS and resuspended in cell culture medium (RMPI 1640, 2 mM glutamine, 100 U/ml penicillin, 100 μg/ml streptomycin, 10% fetal calf serum and sodium bicarbonate).
The cells were diluted at target density of 1.100.000 cells/ml were added by pipette (180 μl) into 96/well microtiter plates. Four-fold dilutions of the intended test concentration were added at time zero in 20 μl aliquots to the microtiter plate wells. Usually, test compound was evaluated at six 4-fold dilutions. In routine testing, the highest well concentration was 266.7 μM. All drug concentrations were examined in duplicates. All wells with exception of unstimulated controls were activated with 50 μl of concanavalin A (25 μg/ml). Incubations of cells with test compounds lasted for 72 hours at 37° C., in 5% CO2 atmosphere and 100% humidity. At the end of incubation period, the cells were assayed by using the [^3H]-TdR:
Cell cultures were incubated with 0.5 μCi (20 μl of stock solution […]) per well for 6 hours at 37° C. and 5% CO2. The automated cell harvester was used to lyse cells in water and adsorb the DNA onto glass-fiber filters in the format of microtiter plate. The DNA incorporated [^3H]-TdR was retained on the filter while unincorporated material passes through. The filters were dried at room temperature overnight, sealed into a sample bag with 10-12 ml of scintillant. The amount of [^3H]-TdR present in each filter (in cpm) was determined by scintillation counting in a Betaplate liquid scintillation counter. The effective dose of immunosuppressant (ED) was calculated using the following equation: ED=(CCPMdrug exposed well/mean CCPMcontrol wells)×100%.

[2] = tested on: human melanoma cell line Arn8 (p53-responsive reporter); experiment: p53-dependent transcriptional activity, β-galactosidase reporter; assay type: cell-based; settings: concentration inducing maximum of β-galactosidase activity
Experimental: Cell lines established from the human cervical carcinoma (HeLa), human breast carcinoma (MCF-7, BT549 and BR474), human osteosarcoma (HOS), human colon carcinoma (HT29), murine fibroblasts (T221acZ) and the human melanoma (Arn8) cell lines were cultured in Dubecco's Modified Eagle Medium (DMEM) supplemented with 10% fetal bovine serum. Tested compounds were added from 50 mM stock solution in dimethyl-sulphoxide (DMSO) into the culture medium at final concentration 20 μM. Control cells received an equivalent volume of DMSO.
β-galactosidase activity of human melanoma cell line […] T221acZ (both stabile transfected with a p53-responsive reporter construct pRGCΔfoslacZ) (Frebung et al., Cancer Res., 52, 1992-6976) was determined. For the determination of total β-galactosidase activity, cells were lysed by 3 freeze-thaw cycles in 0.25 M Tris pH 7.5, and lysates were assayed as described by Sambrook et al., Mol. cloning, New York, 1989.
Effect of 25 and related compounds on activation of p53 protein was also analyzed in human melanoma cell line Arn8 and murine fibroblast cell line T22LacZ expressing β-galactosidase under control of p53 responsive promoter. Induction of wt p53 in these cells treated with 20 μM 25 (6, 12 and 24 hrs) leads to activation of responsive promoter and consequently to expression of β-galactosidase. Arn8 and T221acZ cells treated with 25 were fixed and examined microscopically for β-galactosidase activity using X-gal substrate leading to about 25% blue-colored cells compared to less than 1% of blue-colored cells in DMSO-treated control cells (data not shown). The total β-galactosidase activity in Arn8 cells was also assessed using colorimetric assay.

B16 = experiment: In vitro cytotoxic activity, Calcein AM; assay type: cell-based; settings: three days
[3] = biological target: cdc2a-MS protein (plant CDK, cdc2Ms kinase) (Vicia faba, UniProt A0AAV0YZ35); experiment: CDK inhibitory activity on plant kinases (plant CDK); assay type: biochemical; settings: histone H1 phosphorylation
Experimental: Protein extraction and purification of pant CDK by binding to p13^suc1-beads or immunopurification with an antibody specific to the cdc2a-MS protein was carried out as described previously (Bögre et al. 1997, Plant Physiol. 113, 1997, 841-852). The MMK1 protein kinase was purified with a specific antibody from Vicia faba extracts as described by Bögre et al. 1997a, Plant Cell 9, 75-83). Protein kinase activity was measures as described above in Example 20. The quantification of radioactivity incorporated into histone H1 or myelin basic protein was undertaken using phosphoimager (FIG. 2).

cdk1/cyclin B (CDC2) = cdk1/cyclin B (CDC2) (Homo sapiens, UniProt P06493); experiment: CDK inhibition assay, cdk1/cyclin B (CDC2) kinase, histone phosphorylation; assay type: biochemical
In short: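 Radiometric endpoint kinase assay under linear conditions: histone (1 mg/ml) phosphorylated with 15 μM ATP and [γ-32P]ATP in 50 mM HEPES pH 7.4, 10 mM MgCl2, 1 mM DTT. IC50 obtained graphically from dose-response curves of % maximal activity, read by imaging analyzer.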

IκB-α kinase = IκB-α kinase inhibition, in vitro kinase assay; assay type: biochemical
β-adrenergic receptors = experiment: Modulation of isoproterenol-induced cAMP synthesis in rat C6 glioma; assay type: cell-based; settings: cAMP synthesis induced by 5 μM (−) isoproterenol
Experimental: Mechanism of action of novel compounds is presented on FIG. 3. Rat C6 glioma (ATCC N° CCL107) was cultivated in monolayer in serum-free chemically defined medium containing Ham's F10/minimal essential medium (1:1 vol/vol), 2 mM L-glutamine, 1% (vol/vol) minimal essential medium vitamins (100×), 1% (vol/vol) minimal essential medium nonessential amino acids (100×), 100 U/ml penicillin, 100 μg/ml streptomycin and 30 nM sodium selenide. Incubation was at 37° C. in a humidified atmosphere. Assays were performed in the logarithmic growth phase at a density of 2.5×10^5 cells/cm^2. Intracellular cAMP synthesis was induced by addition of 5 μM (−) isoproterenol. After 30 min incubation at 37° C. the medium was removed and the cellular amount of cAMP determined using the cAMP-enzyme immunoassay kit of Amersham. The I50 is determined from a dose-response curve in duplicate.
The effect of seven purine-analogs was measured after simultaneous addition with isoproterenol.

[4] = tested on: Cytokinin-dependent tobacco callus Nicotiana tabacum L. cv. Wisconsins 38; experiment: Tobacco callus bioassay for cytotoxicity (herbicidal activity); assay type: cell-based; settings: Nicotiana tabacum, 672 h
Experimental: The novel compounds have also been tested in tobacco callus bioassay for cytotoxicity (herbicidal activity) and induction of cell death. The compounds to be tested were dissolved in dimethylsulfoxide (DMSO) and the solution brought up to 10^−3 M with distilled water. […] Cytokinin-dependent tobacco callus Nicotiana tabacum L. cv. Wisconsins 38 Murashige-Skoog medium, containing per 1 liter: 4 μmol nicotinic acid, 2.4 μmol pyridoxine hydrochloride, 1.2 μmol thiamine, 26.6 μmol glycine, 1.37 μmol glutamine, 1.8 μmol myo.inositol, 30 g of sucrose, 8 g of agar, […] α-naphthylacetic acid and 0.5 μmol 6-benzylaminopurine. Sub cultivation was carried out every three weeks. Fourteen days before the bioassay, the callus tissue was transferred to the media without 6-benzylaminopurine. Compounds were tested with two different concentrations of 6-benzylaminopurine (10^−5 M and 10^−6 M). Inhibitory growth activity was determined from the increase in fresh callus weight after four weeks of cultivation. Five replicates were prepared for each concentration tested and the entire test was repeated at least twice.

[5] = read-out: 10^−5 M BAP IC50, 10^−5 M 6-benzylaminopurine, four weeks
[6] = read-out: 10^−6 M BAP IC50, 10^−6 M 6-benzylaminopurine, four weeks

cdk1/cyclin B (CDC2), sequence (P06493 whole entry, species assumed): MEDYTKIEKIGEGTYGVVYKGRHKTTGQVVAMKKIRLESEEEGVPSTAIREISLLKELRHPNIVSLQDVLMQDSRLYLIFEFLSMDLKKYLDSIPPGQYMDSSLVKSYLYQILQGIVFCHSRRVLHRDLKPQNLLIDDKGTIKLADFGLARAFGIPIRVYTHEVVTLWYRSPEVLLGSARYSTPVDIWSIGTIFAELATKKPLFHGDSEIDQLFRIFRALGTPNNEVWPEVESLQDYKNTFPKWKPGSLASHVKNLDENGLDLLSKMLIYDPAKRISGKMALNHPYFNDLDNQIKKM
cdk1/cyclin B (CDC2), sequence (P14635 whole entry partner, species assumed): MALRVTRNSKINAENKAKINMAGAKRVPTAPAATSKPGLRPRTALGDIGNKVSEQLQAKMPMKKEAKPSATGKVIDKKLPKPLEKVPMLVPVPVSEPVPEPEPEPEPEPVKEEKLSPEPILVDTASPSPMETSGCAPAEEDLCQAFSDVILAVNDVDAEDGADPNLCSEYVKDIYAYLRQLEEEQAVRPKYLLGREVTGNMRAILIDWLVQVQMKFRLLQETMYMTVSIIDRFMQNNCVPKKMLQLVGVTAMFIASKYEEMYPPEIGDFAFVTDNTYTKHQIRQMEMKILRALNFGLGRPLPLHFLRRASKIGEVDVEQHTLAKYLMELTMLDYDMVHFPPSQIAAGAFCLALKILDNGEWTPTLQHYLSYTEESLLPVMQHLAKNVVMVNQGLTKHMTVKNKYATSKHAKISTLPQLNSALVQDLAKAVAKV
MMK1 protein kinase, sequence (A0AAV1B7B8 1-394): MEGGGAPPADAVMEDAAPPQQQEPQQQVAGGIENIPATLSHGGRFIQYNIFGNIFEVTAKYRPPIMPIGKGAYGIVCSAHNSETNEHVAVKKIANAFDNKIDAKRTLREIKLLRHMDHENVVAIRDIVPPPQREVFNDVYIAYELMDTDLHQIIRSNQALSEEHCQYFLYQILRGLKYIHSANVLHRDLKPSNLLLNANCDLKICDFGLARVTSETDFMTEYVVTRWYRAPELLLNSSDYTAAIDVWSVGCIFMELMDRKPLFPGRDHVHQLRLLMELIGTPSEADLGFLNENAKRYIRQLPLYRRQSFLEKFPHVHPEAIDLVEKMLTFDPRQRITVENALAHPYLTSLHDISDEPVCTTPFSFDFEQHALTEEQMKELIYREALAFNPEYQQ
cdc2a-MS protein (plant CDK, cdc2Ms kinase), sequence (A0AAV0YZ35 1-294): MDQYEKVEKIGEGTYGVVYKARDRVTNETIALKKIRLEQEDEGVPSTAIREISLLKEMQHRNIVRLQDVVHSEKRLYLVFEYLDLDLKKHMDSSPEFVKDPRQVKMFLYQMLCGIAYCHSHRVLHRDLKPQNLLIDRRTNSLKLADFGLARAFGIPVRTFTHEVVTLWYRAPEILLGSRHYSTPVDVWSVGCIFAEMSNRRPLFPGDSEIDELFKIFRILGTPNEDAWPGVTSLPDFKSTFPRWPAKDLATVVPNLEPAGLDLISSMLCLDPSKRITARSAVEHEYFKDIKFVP

- IC50 (DNA synthesis): 400 nM
SMILES: CC(C)c1n[nH]c2c(Nc3ccc(Cl)c(N)c3)nc(NCCCO)nc12

- IC50 (MMK1 protein kinase): 400 nM
SMILES: Cc1n[nH]c2c(NCc3ccccc3)nc(N[C@@H](CO)C(C)C)nc12
- GI50 ([1]; Homo sapiens, 72 h): 2800 nM
- EC50 (normal human lymphocytes): 6500 nM
- Max β-Gal. Activtity Conc. [2]: 6.5 µM
- GI50 (B16; Mus musculus, B16, 72 h): 4300 nM

- melting point: 60 to 85 °C
SMILES: COc1ccc(CNc2nc(NCc3ccc(OC)cc3)c3[nH]nc(C(C)C)c3n2)cc1 [Example 17, 5,7-di[(4-methoxybenzyl)amino]-3-isopropylpyrazolo[4,3-d]pyrimidine]

- IC50 [3]: 2 nM
SMILES: CC[C@H](CO)Nc1nc(NCc2cc(O)c(OC)cc2O)c2[nH]nc(C(C)C)c2n1
- GI50 [1]: 3500 nM
- GI50 (B16): 5700 nM

SMILES: CC[C@H](CO)Nc1nc(Nc2cccc(Cl)c2)c2[nH]nc(C(C)C)c2n1
- EC50 (normal human lymphocytes): 1800 nM
- Max β-Gal. Activtity Conc. [2]: 12 µM

SMILES: CC[C@H](CO)Nc1nc(NCc2ccc(OC)cc2)c2[nH]nc(C(C)C)c2n1
- Max β-Gal. Activtity Conc. [2]: 0.8 µM

- IC50 (cdk1/cyclin B (CDC2)): 400 nM
- IC50 (IκB-α kinase): 1200 nM
- melting point: 145 to 147 °C
SMILES: CC(C)c1n[nH]c2c(NCc3ccccc3)nc(NCCN)nc12 [Example 14, 7-benzylamino-5-(2-aminoethyl)amino-3-isopropylpyrazolo[4,3-d]pyrimidine]
- Effect: activation (β-adrenergic receptors; simultaneous addition, 30 min): 1.3-fold activation
- IC50 [4, 5]: > 50000 nM
- IC50 [4, 6]: > 50000 nM

SMILES: CC(C)c1n[nH]c2c(Nc3cccc(Cl)c3)nc(NC3CCCC3)nc12
- Max β-Gal. Activtity Conc. [2]: 11.5 µM

SMILES: CC(C)c1n[nH]c2c(Nc3cccc(Cl)c3)nc(N[C@@H](CO)C(C)C)nc12
- GI50 ([1]; Homo sapiens, 72 h): 1200 nM
- EC50 (normal human lymphocytes): 3200 nM
- Max β-Gal. Activtity Conc. [2]: 7 µM
- GI50 (B16; Mus musculus, B16, 72 h): 1700 nM

- IC50 (MMK1 protein kinase): 1300 nM
SMILES: CC[C@H](CO)Nc1nc(NCc2ccccc2)c2[nH]nc(C)c2n1
- GI50 ([1]; Homo sapiens, 72 h): 3400 nM
- EC50 (normal human lymphocytes): 9500 nM
- Max β-Gal. Activtity Conc. [2]: 9.5 µM
- GI50 (B16; Mus musculus, B16, 72 h): 4200 nM

SMILES: COc1ccc(CNc2nc(NC3CCCC3)nc3c(C(C)C)n[nH]c23)cc1
- Max β-Gal. Activtity Conc. [2]: 21 µM

- IC50 (cdk1/cyclin B (CDC2)): 80 nM
- IC50 (β-adrenergic receptors; read-out: I50): 25000 ± 2000 nM
SMILES: CC(C)c1n[nH]c2c(NCc3ccccc3)nc(NCCCN)nc12 [Compound 17, 5-(3-aminopropylamino)-7-benzylamino-3-isopropylpyrazolo[4,3-d]pyrimidine]
- IC50 [4, 5]: > 50000 nM
- IC50 [4, 6]: 48000 nM

- IC50 (DNA synthesis): 3700 nM
SMILES: CC(C)c1n[nH]c2c(NCc3cccc(Cl)c3O)nc(NCCCO)nc12

- IC50 [3]: 0.7 nM
SMILES: COc1cc(O)c(CNc2nc(N[C@@H](CO)C(C)C)nc3c(C(C)C)n[nH]c23)c(O)c1
- GI50 [1]: 1200 nM
- GI50 (B16): 2700 nM

- IC50 (cdk1/cyclin B (CDC2)): 200 nM
- IC50 (IκB-α kinase): 400 nM
- IC50 (DNA synthesis): 300 nM
SMILES: CC[C@H](CO)Nc1nc(NCc2ccc(Cl)c(N)c2N)c2[nH]nc(C(C)C)c2n1
- IC50 [4, 5]: 49000 nM
- IC50 [4, 6]: 8300 nM

- melting point: 257 to 259 °C
SMILES: CC(C)c1n[nH]c2c(Nc3cccc(Cl)c3)nc(Cl)nc12 [Example 11, 7-(3-chloroanilino)-5-chloro-3-isopropylpyrazolo[4,3-d]pyrimidine]
